Test results taken from patent US20020082273A1, “Agents for use in the treatment of alzheimer's disease” (priority 1998, published 2002).
Where a name gives a salt, the structure may show the parent alone.

Tests used:
Format in all cases: biochemical
[1] = Metal reduction assay, Cu^2+ to Cu^+
Experimental: Aβ (10 μM in PBS, pH 7.4 or 6.8, as shown) was incubated for 30 minutes (37° C.) in the presence of Cu^2+10 μM ±Zn^2+ 10 μM). […] levels (n=3, ±SD) were assayed against a standard curve.
Polypeptides (10 μM) or Vitamin C (100 μM), metal ions (10 μM, Fe(NO3)3 or Cu(NO3)2), and reduced metal ion indicators, bathophenanthrolinedisulfonic acid (BP, for Fe^2+, Sigma, 200 μM) or bathocuproinedisulfonic acid (BC, for Cu^+, Sigma, 200 μM), were coincubated in phosphate buffered saline (PBS), pH 7.4, for 1 hr at 37° C. The metal ion solutions were prepared by direct dilution in the buffer from their aqueous stocks purchased from National Institute of Standards and Technology (NIST). […] In control samples, both metal ion and indicator were present to determine the background buffer signal. As a further control, both metal ion and peptide were present in the absence of indicator to estimate the contribution of light scattering due to turbidity to the absorbance reading at these wavelengths. The net absorbances (ΔA) at 536 nm or 483 nm were obtained by deducting the absorbances from these controls from the absorbances generated by the peptide and metal in the presence of the respective indicator.

[2] = Metal reduction assay, Fe^3+ to Fe^2+; details: 10 μM Fe^3+, PBS pH 7.4, 1 hr 37° C.
Experimental: The metal reduction assay was performed using a 96-well microtiter plate (Costar) based upon a modification of established protocols (Landers, J. W., et al., Amer. Clin. Path. 29:590 (1958); Landers, J. W., et al., Clinica Chimica Acta 3:329 (1958)). Polypeptides (10 μM) or Vitamin C (100 μM), metal ions (10 μM, Fe(NO3)3 or Cu(NO3)2), and reduced metal ion indicators, bathophenanthrolinedisulfonic acid (BP, for Fe^2+, Sigma, 200 μM) or bathocuproinedisulfonic acid (BC, for Cu^+, Sigma, 200 μM), were coincubated in phosphate buffered saline (PBS), pH 7.4, for 1 hr at 37° C. The metal ion solutions were prepared by direct dilution in the buffer from their aqueous stocks purchased from National Institute of Standards and Technology (NIST). Absorbances were then measured at 536 mn (Fe^2+-BP complex) and 483 nm (Cu^+-BC complex), respectively, using a 96-well plate reader (SPECTRAmax 250, Molecular Devices, CA). In control samples, both metal ion and indicator were present to determine the background buffer signal. As a further control, both metal ion and peptide were present in the absence of indicator to estimate the contribution of light scattering due to turbidity to the absorbance reading at these wavelengths. The net absorbances (ΔA) at 536 nm or 483 nm were obtained by deducting the absorbances from these controls from the absorbances generated by the peptide and metal in the presence of the respective indicator.
The concentrations of reduced metal ions (Fe^2+ or Cu^+) were quantified based on the formula: Fe^2+ or Cu^+ (˜M)=A*10^6/(L*M), where L is the measured equivalent vertical pathlength for a well of 300 μL volume as described in the instrument's specifications manual (0.856 cm for Fe^2+; 1.049 cm for Cu^+); M is the known molecular absorbance (M^−1 cm^−1) which is 7124 (for Fe^2+-BP complex) or 2762 (for Cu^+-BC complex).

Aβ1-42 = Aβ1-42 (Homo sapiens, UniProt P05067); assay: Effect of metal chelators on H2O2 production from Aβ1-42; details: 1 μM Cu^2+; chelator 200 μM
Sequence of Aβ1-42 (P05067 672-713 limits assumed): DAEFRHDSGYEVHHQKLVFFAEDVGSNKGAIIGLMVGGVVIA

[3] = target: T1, Aβ1-40 or Aβ1-42 SDS-resistant polymers (Homo sapiens, UniProt P05067); assay: Dissolution of in vitro Cu^2+-induced SDS-resistant Aβ polymers
T1 construct: purchased W. Keck Laboratory, Yale; host or cells: chemical synthesis
T1 sequence (P05067 672-713, change not shown): as the sequence (P05067 672-713 limits assumed) above

Molecule	disruption of SDS-resistant polymers ([3]; 4.5 M)	disruption of SDS-resistant polymers ([3]; 9M)	other results
insulin: histidine-containing peptide that can bind copper and zinc			reduction of available Cu^2+ ([1]; 10 μM Cu^2+, PBS pH 7.4, 1 hr 37° C.): 10%; Cu^2+ reduction ([1]; 10 μM, PBS, 30 minutes 37° C., Cu^2+ 10 μM): no Cu^2+ reduction; reduction of available Fe^3+ [2]: did not significantly facilitate the reduction of Fe^3+
O=S(=O)(O)c1ccc(-c2ccnc3c2ccc2c(-c4ccc(S(=O)(=O)O)cc4)ccnc23)cc1 [BP, bathophenanthrolinedisulfonic acid]			effect on H2O2 formation by Aβ1-42 (Aβ1-42): inhibited H2O2 formation
NC(N)=O [Urea, urea]	did not disrupt	only slightly	
N=C(N)N [guanidine HCl]	did not disrupt	only slightly	
